Measured values as given in patent US9139502B2, “Use of an urushiol compound in preparation of pharmaceutical compositions for inhibiting Smad3 phosphorylation” (Southern Hospital, Southern Medical University, priority 2013, dated 2015).

Assays:
Smad2 phosphorylation = Smad2 phosphorylation in kidney tissue of UUO rats (immunohistochemistry, Western blot); type: in vivo, rat; settings: GQ-5 40 mg/kg daily i.p. right after or 7 days after UUO, sacrificed day 14
Procedure: Male Sprague-Dawley rats with body weight 200 to 250 g were randomized into 4 groups (n=6 in each group): (1) sham operated rats; (2) UUO rats; (3) UUO+GQ-5 d1 rats; (4) UUO+GQ-5 d7 rats.
(§1) GQ-5 was dissolved in 5% propylene glycol.
(3) UUO+GQ-5 d1 rats: daily intraperitoneal injection of GQ-5 (40 mg/kg body weight) right after UUO;
(4) UUO+GQ-5 d7 rats: daily intraperitoneal injection of GQ-5 (40 mg/kg body weight) 7 days after UUO.
UUO was performed using an established protocol as described. GQ-5 was dissolved in 5% propylene glycol. Rats were administrated with GQ-5 as described before. All the rats were sacrificed 14 days after UUO. Immunohistochemical staining and Western blot analyses were performed to examine the Smad3 and Smad2 phosphorylation in kidney tissue.

fibronectin = assay: Western blot of TGF-β1-induced fibronectin protein in vitro; type: cell-based, rat; settings: NRK 52E and NRK 49F cells, GQ-5 0.1-2.5 μM pre-treated 1 h, TGF-β1 10 ng/ml 48 h
Procedure: (§2) NRK52E and NRK49F cells were cultured in DMEM-Ham's medium supplemented with 10% fetal bovine serum. The cells reached at approximately 50% confluence were used for in vitro experiments. Cells were serum-starved for 12 h, and randomized into 6 groups: (1) Controls; (2) GQ-5 only; (3) TGF-β1 only; (4) TGF-β1+GQ-5 0.1 μM; (5) TGF-β1+GQ-5 0.5 μM; (6) TGF-β1+GQ-5 2.5 μM
(§3) (2) GQ-5 only: pre-treated with GQ-5 (2.5 μM) for 1 h, followed with DMEM for 48 h
(§4) (3) TGF-β1 only: pre-treated with DMSO for 1 h, followed with TGF-β1 (10 ng/ml) for 48 h
(§5) (4) TGF-β1+GQ-5 0.1 μM: pre-treated with GQ-5 (0.1 μM) for 1 h, followed with TGF-β1 (10 ng/ml) for 48 h
(§6) (5) TGF-β1+GQ-5 0.5 μM: pre-treated with GQ-5 (0.5 μM) for 1 h, followed with TGF-β1 (10 ng/ml) for 48 h
(§7) (6) TGF-β1+GQ-5 2.5 μM: pre-treated with GQ-5 (2.5 μM) for 1 h, followed with TGF-β1 (10 ng/ml) for 48 h
(§8) GQ-5 was dissolved in DMSO. Cells were treated as described. Cells lysates were immunebloted with antibodies against α-SMA, collagen I and fibronectin.

Smad4 [1] = assay: Immunofluorescence staining of Smad4 nuclear translocation; type: cell-based, rat; settings: NRK52E cells, GQ-5 2.5 μM pre-treated 1 h, TGF-β1 10 ng/ml 2 h
Procedure: (§9) NRK52E cells were cultured in DMEM-Ham's medium supplemented with 10% fetal bovine serum. The cells reached at approximately 50% confluence were used for in vitro experiments. Cells were serum-starved for 12 h, and randomized into 3 groups: (1) Controls; (2) TGF-β1 only; (3) TGF-β1+GQ-5.
(§10) (2) TGF-β1 only: pre-treated with DMSO for 1 h, followed with TGF-β1 (10 ng/ml) for 2 h
(§11) (3) TGF-β1+GQ-5: pre-treated with GQ-5 (2.5 μM) for 1 h, followed with TGF-β1 (10 ng/ml) for 2 h
(§12) GQ-5 was dissolved in DMSO. Cells were treated as described Immunofluorescence staining was performed to examine the nuclear translocation of Smad2, Smad3, and Smad4.

[2] = target: T1, interaction of Smad3 with TβRI (Rattus norvegicus, UniProt P84025); assay: Immunoprecipitation of Smad3 with TβRI in vitro; type: cell-based; settings: NRK52E cells, GQ-5 2.5 nM pre-treated 1 h, TGF-β1 10 ng/ml 1 h
T1 sequence (P84025 whole entry): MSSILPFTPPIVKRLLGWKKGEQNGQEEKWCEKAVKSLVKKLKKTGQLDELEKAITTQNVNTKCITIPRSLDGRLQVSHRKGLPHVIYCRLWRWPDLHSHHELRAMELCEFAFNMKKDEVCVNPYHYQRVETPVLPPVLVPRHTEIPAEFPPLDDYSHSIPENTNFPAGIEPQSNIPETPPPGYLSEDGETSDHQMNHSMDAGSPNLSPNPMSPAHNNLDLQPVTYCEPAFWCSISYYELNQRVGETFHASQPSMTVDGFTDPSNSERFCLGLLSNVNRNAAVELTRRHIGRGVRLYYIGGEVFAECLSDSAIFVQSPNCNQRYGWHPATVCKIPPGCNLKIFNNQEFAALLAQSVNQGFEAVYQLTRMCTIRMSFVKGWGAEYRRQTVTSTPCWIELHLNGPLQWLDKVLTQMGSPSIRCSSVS
Procedure: as §9, with “4” for “3”, “(2) GQ-5 only; (3)” for “(2)”, “(4) TGF-β1+GQ-5” for “(3) TGF-β1+GQ-5.”
(2) GQ-5 only: pre-treated with GQ-5 (2.5 nM) for 1 h, followed with DMEM for 1 h
(3) TGF-β1 only: pre-treated with DMSO for 1 h, followed with TGF-β1 (10 ng/ml) for 1 h
(§13) (4) TGF-β1+GQ-5: pre-treated with GQ-5 (2.5 nM) for 1 h, followed with TGF-β1 (10 ng/ml) for 1 h
GQ-5 was dissolved in DMSO. Cells were treated as described. Cell lysates were collected for immunoprecipitation to examine the interaction among TGFβ type I receptor (TβRI), TβRII, Smad3 and Smad2.

Smad3 = assay: Immunofluorescence staining of TGF-β1-induced Smad3 nuclear translocation; type: cell-based, rat; settings: NRK52E cells, GQ-5 2.5 μM pre-treated 1 h, TGF-β1 10 ng/ml 2 h
Procedure: as §9, §10, §11, §12

[3] = target: T1, interaction of Smad3 with TβRI; assay: Immunoprecipitation of Smad3 with TβRI in UUO kidneys; type: in vivo; design: from tissue; host or cells: kidney of UUO Sprague-Dawley rats; settings: GQ-5 40 mg/kg daily i.p. right after UUO, sacrificed day 14
Procedure: Male Sprague-Dawley rats with body weight 200 to 250 g were randomized into 3 groups (n=6 in each group): (1) sham operated rats; (2) UUO rats; (3) UUO+GQ-5 rats.
as §1
(3) UUO+GQ-5 rats: daily intraperitoneal injection of GQ-5 (40 mg/kg body weight) right after UUO;
UUO was performed using an established protocol as described. GQ-5 was dissolved in 5% propylene glycol. Rats were administrated with GQ-5 as described before. All the rats were sacrificed 14 days after UUO. Immunoprecipitation analyses were performed to examine the interaction among TβRI, TβRII, Smad3 and Smad2.

Smad4 [4] = assay: Western blot of Smad4 expression in vitro; type: cell-based, rat; settings: NRK52E and NRK49F cells, GQ-5 2.5 nM pre-treated 1 h, TGF-β1 10 ng/ml 1 h
Procedure: (§14) NRK52E and NRK49F cells were cultured in DMEM-Ham's medium (Gibco, Life Techologies, NY, USA) supplemented with 10% fetal bovine serum (Gibco, Life Techologies, NY, USA). The cells reached at approximately 50% confluence were used for in vitro experiments. Cells were serum-starved for 12 h, and randomized into 4 groups: (1) Controls; (2) GQ-5 only; (3) TGF-β1 only; (4) TGF-β1+GQ-5
(§15) (2) GQ-5 only: pre-treated with GQ-5 (2.5 μM) for 1 h, followed with DMEM for 1 h
(§16) (3) TGF-β1 only: pre-treated with DMSO (0.1%) for 1 h, followed with TGF-β1 (10 ng/ml) for 1 h
as §13
(§17) GQ-5 was dissolved in DMSO. Cells were treated as described. cell lysates were immunoblotted with antibodies against Smad4, Smad7, phospho-p38, p38, phospho-PI3K, PI3K, phosphor-ERK, and ERK.

ERK = assay: Western blot of TGF-β1-induced ERK phosphorylation in vitro; type: cell-based, rat; settings: NRK52E and NRK49F cells, GQ-5 2.5 nM pre-treated 1 h, TGF-β1 10 ng/ml 1 h
Procedure: as §14, §15, §16, §13, §17

α-SMA = assay: Western blot of TGF-β1-induced α-SMA protein in vitro; type: cell-based, rat; settings: NRK 52E and NRK 49F cells, GQ-5 0.1-2.5 μM pre-treated 1 h, TGF-β1 10 ng/ml 48 h
Procedure: as §2, §3, §4, §5, §6, §7, §8

SMILES: CCCCCC/C=C\CCCCCCCc1cccc(O)c1O [GQ-5, 3-[(Z)-pentadec-8-enyl]catechol]
- Smad2 phosphorylation in renal tissue (Smad2 phosphorylation): not Smad2
- TGF-β1-induced protein expression of fibronectin (fibronectin): significantly inhibited
- nuclear translocation of Smad4 (Smad4 [1]): also reduced
- interaction of Smad3 with TβRI [2]: significantly blocked
- TGF-β1-induced Smad3 nuclear translocation (Smad3): significantly reduced
- interaction of Smad3 with TβRI [3]: significantly blocked
- protein expression of Smad4 (Smad4 [4]): did not affect
- TGF-β1-induced phosphorylation of ERK (ERK): did not affect
- TGF-β1-induced protein expression of α-SMA (α-SMA): significantly inhibited
